The text below walks through data of patent US20250375540A1, “FIBROBLAST ACTIVATION PROTEIN TARGETING PRECURSOR AND RADIOTRACER” (ITM ONCOLOGICS GMBH, priority 2022, published 2025).

The target of assay [1] is T1, FAP (Homo sapiens, UniProt Q12884).
T1 sequence (Q12884 1-760): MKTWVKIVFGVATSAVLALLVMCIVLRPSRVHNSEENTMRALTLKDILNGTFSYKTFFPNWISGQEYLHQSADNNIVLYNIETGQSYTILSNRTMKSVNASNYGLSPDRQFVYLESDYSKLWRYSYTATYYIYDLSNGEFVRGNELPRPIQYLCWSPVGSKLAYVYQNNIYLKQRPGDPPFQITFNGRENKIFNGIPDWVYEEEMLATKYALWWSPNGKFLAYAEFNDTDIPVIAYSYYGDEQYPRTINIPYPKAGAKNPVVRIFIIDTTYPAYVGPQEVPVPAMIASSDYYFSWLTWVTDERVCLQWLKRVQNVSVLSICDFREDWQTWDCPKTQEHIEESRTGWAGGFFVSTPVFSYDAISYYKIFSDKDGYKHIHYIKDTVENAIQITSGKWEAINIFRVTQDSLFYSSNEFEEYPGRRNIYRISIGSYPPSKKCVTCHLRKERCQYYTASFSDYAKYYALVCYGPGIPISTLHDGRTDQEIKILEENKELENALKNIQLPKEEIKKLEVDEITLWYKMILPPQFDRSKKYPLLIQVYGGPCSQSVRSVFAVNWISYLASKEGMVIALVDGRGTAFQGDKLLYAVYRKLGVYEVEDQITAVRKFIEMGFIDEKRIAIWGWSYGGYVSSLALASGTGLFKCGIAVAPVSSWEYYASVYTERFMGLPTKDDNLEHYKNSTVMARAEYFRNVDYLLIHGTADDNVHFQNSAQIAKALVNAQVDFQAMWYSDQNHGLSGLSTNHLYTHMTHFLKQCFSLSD
The assay can be described thus: Affinity to FAP (IC50). Type of assay: biochemical. Conditions: for affinity to FAP, in words: compared with reference (F) and gold standard (G); for selectivity for FAP over PREP, in words: relative to (G) UAMC1110; for S = PREP IC50/FAP IC50: selectivity FAP over PREP; for SF = S relative to UAMC1110: selectivity factor relative to UAMC1110.

The target of assay [2] is T2, PREP (Homo sapiens, UniProt P48147).
T2 sequence (P48147 1-710): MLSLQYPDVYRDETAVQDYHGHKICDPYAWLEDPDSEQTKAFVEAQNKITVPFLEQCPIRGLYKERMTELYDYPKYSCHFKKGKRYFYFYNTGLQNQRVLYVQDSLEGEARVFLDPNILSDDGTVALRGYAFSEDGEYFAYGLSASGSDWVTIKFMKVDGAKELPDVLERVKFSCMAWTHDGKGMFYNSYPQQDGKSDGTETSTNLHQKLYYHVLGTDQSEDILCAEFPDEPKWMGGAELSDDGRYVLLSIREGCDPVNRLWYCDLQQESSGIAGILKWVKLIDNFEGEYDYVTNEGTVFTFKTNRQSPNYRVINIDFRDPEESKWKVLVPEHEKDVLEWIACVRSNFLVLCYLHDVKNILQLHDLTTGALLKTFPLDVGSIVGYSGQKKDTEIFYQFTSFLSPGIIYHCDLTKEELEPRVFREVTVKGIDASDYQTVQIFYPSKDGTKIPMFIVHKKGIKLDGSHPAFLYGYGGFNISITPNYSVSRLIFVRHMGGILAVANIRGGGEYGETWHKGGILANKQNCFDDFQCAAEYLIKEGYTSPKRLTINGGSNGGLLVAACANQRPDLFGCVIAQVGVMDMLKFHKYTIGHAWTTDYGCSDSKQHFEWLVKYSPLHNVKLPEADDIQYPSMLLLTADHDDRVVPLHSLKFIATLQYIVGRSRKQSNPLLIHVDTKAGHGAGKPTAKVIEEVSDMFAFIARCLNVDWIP
The assay can be described thus: Affinity to PREP (IC50). Type of assay: biochemical. Conditions: for binding to off-target PREP, in words: compared with reference (F) and (G). From the text:
Beneath Table 1 presents measured affinities to FAP and PREP for the inventive precursor compounds 1-4 and reference compound 5 as well as the original FAP inhibitor UAMC1110 as the current gold standard.

Assay [3] addresses T1, FAP. Conditions: background statement; cited from earlier work.
Assay [4] concerns the target DPP4 (Homo sapiens, UniProt P27487). Conditions: background statement; cited from earlier work.

DPP4, sequence (P27487 whole entry): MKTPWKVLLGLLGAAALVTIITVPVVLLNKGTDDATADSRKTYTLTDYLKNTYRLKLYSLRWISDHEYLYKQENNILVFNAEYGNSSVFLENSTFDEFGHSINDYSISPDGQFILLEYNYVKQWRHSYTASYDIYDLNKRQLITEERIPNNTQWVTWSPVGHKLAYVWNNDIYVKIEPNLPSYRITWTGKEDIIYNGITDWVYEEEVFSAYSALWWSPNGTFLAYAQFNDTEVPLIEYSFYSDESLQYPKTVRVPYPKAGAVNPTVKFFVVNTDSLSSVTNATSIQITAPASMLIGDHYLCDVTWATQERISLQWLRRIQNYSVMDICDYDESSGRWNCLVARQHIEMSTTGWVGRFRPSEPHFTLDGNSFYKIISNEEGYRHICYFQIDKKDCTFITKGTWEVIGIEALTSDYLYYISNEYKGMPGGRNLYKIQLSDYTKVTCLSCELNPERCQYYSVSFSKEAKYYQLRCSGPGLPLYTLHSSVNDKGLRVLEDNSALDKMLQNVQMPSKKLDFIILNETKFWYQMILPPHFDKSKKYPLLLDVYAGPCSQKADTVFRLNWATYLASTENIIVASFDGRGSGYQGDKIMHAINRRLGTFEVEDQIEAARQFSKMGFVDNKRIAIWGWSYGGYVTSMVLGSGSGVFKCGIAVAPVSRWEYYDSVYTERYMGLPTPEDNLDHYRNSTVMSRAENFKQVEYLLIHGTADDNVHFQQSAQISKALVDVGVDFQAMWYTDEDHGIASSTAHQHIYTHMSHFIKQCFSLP

Consider `CN(CC(=O)O)C1(CCCCC(=O)N[C@H]2CCN(CC(=O)NCCCCOc3ccc4nccc(C(=O)NCC(=O)N5CC(F)(F)C[C@H]5C#N)c4c3)C2)CN(CC(=O)O)CCN(CC(=O)O)C1` [(D), 2,2′-(6-((carboxymethyl)(methyl)amino)-6-(5-(((S)-1-(2-((4-((4-((2-((S)-2-cyano-4,4-difluoropyrrolidin-1-yl)-2-oxoethyl)carbamoyl)quinolin-6-yl)oxy)butyl)amino)-2-oxoethyl)pyrrolidin-3-yl)amino)-5-oxopentyl)-1,4-diazepane-1,4-diyl)diacetic Acid], for which, in assay [1], the IC50 was 0.00028 ± 2e-05 µM; the “affinity to FAP, in words” value is “higher affinity to FAP than reference compound (F) and the UAMC1110 gold standard (G)”; the “selectivity for FAP over PREP, in words” value was “three times higher than that of (G)”; the “S = PREP IC50/FAP IC50” value is given as 11.8 × 10^3. For the same compound, in assay [1], the “SF = S relative to UAMC1110” value was 2.8. For the same compound, in assay [2], it took 3.3 ± 0.2 µM to reach half-maximal inhibition (IC50); the “binding to off-target PREP, in words” value was “reduced binding to off-target PREP compared to reference (F) and (G)”.

In the case of `CN(CC(=O)NCCCCOc1ccc2nccc(C(=O)NCC(=O)N3CC(F)(F)C[C@H]3C#N)c2c1)[C@H]1CCN(C(=O)CCCCC2(N(C)CC(=O)O)CN(CC(=O)O)CCN(CC(=O)O)C2)C1` [(E), 2,2′-(6-((carboxymethyl)(methyl)amino)-6-(5-((S)-3-((2-((4-((4-((2-((S)-2-cyano-4,4-difluoropyrrolidin-1-yl)-2-oxoethyl)carbamoyl)quinolin-6-yl)oxy)butyl)amino)-2-oxoethyl)(methyl)amino)pyrrolidin-1-yl)-5-oxopentyl)-1,4-diazepane-1,4-diyl)diacetic Acid], in assay [1], the IC50 amounted to 0.00031 ± 2e-05 µM; the “affinity to FAP, in words” value is “higher affinity to FAP than reference compound (F) and the UAMC1110 gold standard (G)”; the “selectivity for FAP over PREP, in words” value is listed as “twice that of (G)”; the “S = PREP IC50/FAP IC50” value is 8.4 × 10^3. For the same compound, the “SF = S relative to UAMC1110” value in assay [1] is given as 2.0. Moreover, in assay [2], the IC50 is 2.6 ± 0.3 µM; the “binding to off-target PREP, in words” value is “reduced binding to off-target PREP compared to reference (F) and (G)”.

In the case of `N#C[C@@H]1CC(F)(F)CN1C(=O)CNC(=O)c1ccnc2ccccc12` [(G), (S)-N-(2-(2-cyano-4,4-difluoropyrrolidin-1-yl)-2-oxoethyl)quinoline-4-carboxamide], in assay [3], the FAP affinity result is “low nM range”. Further, the DPP4 affinity result in assay [4] is reported as “μM range”.

With `CN(CC(=O)O)C1(CCCCC(=O)NCCCCOc2ccc3nccc(C(=O)NCC(=O)N4CC(F)(F)C[C@H]4C#N)c3c2)CN(CC(=O)O)CCN(CC(=O)O)C1` [Compound (A), (S)-2,2′-(6-((carboxymethyl)(methyl)amino)-6-(5-((4-((4-((2-(2-cyano-4,4-difluoropyrrolidin-1-yl)-2-oxoethyl)carbamoyl)quinolin-6-yl)oxy)butyl)amino)-5-oxopentyl)-1,4-diazepane-1,4-diyl)diacetic Acid], in assay [1], the IC50 turned out to be 0.00027 ± 2e-05 µM; the “affinity to FAP, in words” value is “higher affinity to FAP than reference compound (F) and the UAMC1110 gold standard (G)”; the “selectivity for FAP over PREP, in words” value is given as “six times that of (G)”; the “S = PREP IC50/FAP IC50” value was 23.7 × 10^3. For the same compound, the “SF = S relative to UAMC1110” value in assay [1] was found to be 5.6. Besides, in assay [2], the IC50 turned out to be 6.4 ± 0.4 µM; the “binding to off-target PREP, in words” value was “reduced binding to off-target PREP compared to reference (F) and (G)”.

In the case of `CN(CC(=O)O)C1(CCCCC(=O)N2CCN(CC(=O)NCCCCOc3ccc4nccc(C(=O)NCC(=O)N5CC(F)(F)C[C@H]5C#N)c4c3)CC2)CN(CC(=O)O)CCN(CC(=O)O)C1` [Compound (B), (S)-2,2′-(6-((carboxymethyl)(methyl)amino)-6-(5-(4-(2-((4-((4-((2-(2-cyano-4,4-difluoropyrrolidin-1-yl)-2-oxoethyl)carbamoyl)quinolin-6-yl)oxy)butyl)amino)-2-oxoethyl)piperazin-1-yl)-5-oxopentyl)-1,4-diazepane-1,4-diyl)diacetic Acid], in assay [1], the midpoint of inhibition, the IC50, lay at 0.00027 ± 1e-05 µM; the “affinity to FAP, in words” value is “higher affinity to FAP than reference compound (F) and the UAMC1110 gold standard (G)”; the “S = PREP IC50/FAP IC50” value is listed as 5.6 × 10^3; the “SF = S relative to UAMC1110” value is recorded as 1.3. Besides, in assay [2], the IC50 was 1.5 ± 0.3 µM; the “binding to off-target PREP, in words” value was “comparable to (F) and (G)”.

In general, IC50 refers to the point on the concentration scale where inhibition reaches its midpoint. A high value points to weaker potency in that assay.
